Blank lines part the entries; values can stand above or below the molecule they belong to.
How the values were obtained:
[1] = Pharmacokinetic parameters; format: in vivo; conditions: for half-life: unit and species not given, read-out: Pharmacokinetic Parameters t1/2 (converted)
C57/BL mouse = assay: Sepsis model: murine LPS-d-galactosamine model; format: in vivo; conditions: prevention of mortality over three days
Experimental: Sepsis was induced in the C57/BL mouse by the intravenous injection of 20 ng of lipopolysaccharide/animal plus 20 mgs d-galactosamine/animal. Inhibition was measured as the prevention of mortality over a three day period. Compounds were administered intraperitoneally in 10% cremophore/10% ethanol/80% normal saline one hour before induction.

L929 cells = assay: TNF High Throughput Screen (TNF-α driven apoptosis assay); format: cell-based, mouse; conditions: Mus musculus, human TNF-α + actinomycin D; for IC50: read-out: TNFα IC50
Description: (§1) Description of Table V: The results shown in Table V were obtained using the TNF-α assays performed as described in the protocols entitled “Method for TNF High Throughput Screen” and “Method for VCAM High Throughput Screen”, which are detailed below. These assays measure a cellular response to TNF-α stimulation, and the data published in the table are expressed as percentage inhibitions. Percentage inhibition is computed on a scale of 0 to 100% where 0 percent inhibition means the compound has no effect in the assay (the response is indistinguishable from TNF-α treatment alone), and 100% inhibition means that when the compound is present at the stated concentration, the response in the assay is the same as if TNF-α were not added. These two assays measure two different outcomes of TNF-α treatment, cell death and Vascular Cell Adhesion Molecule (VCAM) expression, and capture two of TNF-α's many biological effects. TNF-α induced apoptosis is a mechanism by which TNF-α production during immune/inflammatory responses can lead to direct cellular and tissue damage. TNF-α VCAM expression in endothelial cells is a response that allows leukocytes to leave the blood and enter a site of immune/inflammatory response. Both of these activities could lead to pathology in immune/inflammatory diseases. In the first column of the table, the percentage inhibition of the TNF-α driven apoptosis assay when the compounds are tested at 1 μM concentration is presented. The second column in the table lists the IC50 for the compound, a standard measure using a dilution series in the assay, and fitting a sigmoidal curve to the resulting dose-response curve. The IC50 is the concentration (derived analytically from the sigmoidal function) at which the compound would inhibit 50% of the response in the assay. The third and fourth column list the corresponding analysis for the TNF-α driven VCAM assay. In Table VI, data corresponding to the data in column 1 of Table V is shown, with human cells replacing the mouse cells used in the high throughput screen. […] As a consequence, the compounds will have use in treating more than one TNF-α mediated condition, and may be selected according to the manner in which the condition manifests. This corresponds to the use of these compounds in the treatment of human disease.
TNF High Throughput Screen.
• 1. Plate 4×10^4 L929 cells in 100 μl of complete EMEM in Costar 96 well plates in PM. • 2. The next day, pretreat with compound, inhibitor and control vehicle for 2 hours. • 3. After 2 hours pretreatment, add 10 μl 5 ng/ml human TNF-α and actinomycin D (40 μg/ml final concentration). • 4. Incubate overnight. • 5. In AM, remove supernatant. • 6. Wash on a plate washer (0.9% NaCl). • 7. Add 100 μl Crystal Violet 0.1% in 20% ETOH. • 8. Incubate at RT for 10 minutes. • 9. Wash on plate washer. • 10. Air dry wells at 37° C. • 11. Add 100 μl of methanol to each well. • 12. Shake plates on orbital shaker and read at 595 nm on plate reader. VCAM High Throughput Screen: Protocol: • 1. Plate Primary human umbilical vein endothelial cells at 1.8×10^4 cells/well in a 96-well tissue culture plate. • 2. Return Plates to 37° C. incubator for 48-72 hours before assay. • 3. On assay day, aspirate wells and add 1804, of endothelial growth cell medium (EGM) to each well. • 4. Add Compound to each well. • 5. Shake plates for 3 minutes. • 6. Incubate plate for 1 hour at 37° C. • 7. Add Tumor Necrosis Factor (TNF) at 1.0 ng/ml final concentration. • 8. Shake plates for 3 minutes. • 9. Incubate plate for 2 hours at 37° C. • 10. Remove plate from incubator and wash plate 3 times with phosphate buffered saline (PBS) using a plate washer. • 11. Add anti-VCAM antibody at 0.5 μg/ml final concentration. • 12. Incubate at 4° C. overnight. • 13. Wash 3 times with PBS on plate washer. • 14. Add goat anti-mouse horseradish peroxidase conjugate. • 15. Incubate at room temperature for one hour. • 16. Wash 3 times with PBS on plate washer. • 17. […]

male rats = assay: Inflammatory Bowel Disease model: rat DNBS distal colitis; format: in vivo; conditions: 7 doses
Experimental: Groups of three male rats weighing 150+/−10 g and fasted for 24 hours were used. Distal colitis was induced by intracolonic instillation of 0.5 ml/rat DNBS (2,4-dinitrobenzene sulfonic acid, 60 mg/ml in ethanol 30%) after which air (2 ml) was gently injected through the cannula to ensure that the solution remains in the colon. A test compound was administered orally 24 and 2 hours before DNBS-instillation and then daily for 5 days in a total of 7 doses. The animals were sacrificed 24 hours after the final dose of test compound administration and each colon was removed and weighed.

[2] = tested on: Vascular Cell Adhesion Molecule (VCAM) expression in primary human umbilical vein endothelial cells; assay: VCAM High Throughput Screen (TNF-α driven VCAM expression); format: cell-based; conditions: HUVEC, TNF 1.0 ng/ml
Description: as §1
• 1. Plate 4×10^4 L929 cells in 100 μl of complete EMEM in Costar 96 well plates in PM. • 2. The next day, pretreat with compound, inhibitor and control vehicle for 2 hours. • 3. After 2 hours pretreatment, add 10 μl 5 ng/ml human TNF-α and actinomycin D (40 μg/ml final concentration). • 4. Incubate overnight. • 5. In AM, remove supernatant. • 6. Wash on a plate washer (0.9% NaCl). • 7. […] Shake plates on orbital shaker and read at 595 nm on plate reader. […]

SMILES: O=C(c1ccccc1)c1ccccc1C(=O)N(CCc1c[nH]cn1)C(Cc1ccccc1)C(=O)NCC(c1ccccc1)c1ccccc1 (racemic) [Compound 43]
bioavailability ([1]; in vivo, po, species not given): < 1%
half-life ([1]; in vivo): 216 min
Sepsis: Murine LPS-d-galactosamine model % inhibition (C57/BL mouse; 10 mg/kg intraperitoneally one hour before induction): 33 @ 10 mg/kg %
IC50 (L929 cells): 2980 nM
Inflammatory Bowel Disease: Rat DNBS model % inhibition of colonic weight gain (male rats; 50 mg/kg orally): 31% @ 50 mg/kg

IC50 [2]: 13.4 µM
SMILES: Cc1nn(-c2nccc(-c3ccccn3)n2)c(C)c1S(=O)(=O)Cc1ccc(Cl)cc1 [Compound 124, 2-[4-(4-Chloro-phenylmethanesulfonyl)-3,5-dimethyl-pyrazol-1-yl]-4-pyridin-2-yl-pyrimidine]

IC50 [2]: 16 µM
SMILES: COc1ccc(C(C(=O)NCC(c2ccccc2)c2ccccc2)N(CCc2c[nH]cn2)C(=O)c2ccccc2C(=O)c2ccccc2)cc1C (stereo not drawn) [Compound 42]
IC50 (L929 cells): 779 nM

SMILES: Cc1nn(-c2nccc(-c3ccccn3)n2)c(C)c1SCc1ccc(Cl)cc1 [Compound 119, 2-[4-(4-Chloro-benzylsulfanyl)-3,5-dimethyl-pyrazol-1-yl]-4-pyridin-2-yl-pyrimidine]
half-life ([1]; in vivo): 138 min
Pharmacokinetic Parameters % oral bioavailability ([1]; species not given): Undetectable
Sepsis: Murine LPS-d-galactosamine model % inhibition (C57/BL mouse; 200 mg/kg intraperitoneally one hour before induction): 33 @ 200 mg/kg %
IC50 [2]: 7.95 µM
Inflammatory Bowel Disease: Rat DNBS model % inhibition of colonic weight gain (male rats; 100 mg/kg orally): 51% @ 100 mg/kg

SMILES: CN(C)CCN(C(=O)c1ccccc1C(=O)c1ccccc1)C(C(=O)NCC(c1ccccc1)c1ccccc1)c1ccccc1 (stereo not drawn) [Compound 56]
IC50 (L929 cells): 6630 nM

SMILES: COc1cccc(CC(C(=O)NCC(c2ccccc2)c2ccccc2)N(CCc2c[nH]cn2)C(=O)c2ccccc2C(=O)c2ccccc2)c1 (stereo not drawn) [Compound 34]
IC50 (L929 cells): 1540 nM

SMILES: O=C(c1ccccc1)c1ccccc1C(=O)N(CCc1c[nH]cn1)C(Cc1ccccc1F)C(=O)NCC(c1ccccc1)c1ccccc1 (stereo not drawn) [Compound 36]
IC50 (L929 cells): 2150 nM

SMILES: Nc1nc(-c2ccccn2)nc(-n2nc(-c3ccc(Cl)cc3)nc2Cc2ccccc2)n1 [Compound 133, 4-[5-Benzyl-3-(4-chloro-phenyl)-[1,2,4]triazol-1-yl]-6-pyridin-2-yl-[1,3,5]triazin-2-ylamine]
IC50 (L929 cells): 19500 nM

SMILES: Cc1nn(-c2nccc(-c3ccccn3)n2)c(C)c1Oc1ccc(CN2CCN(Cc3ccccc3)CC2)cc1 [Compound 104, 2-{4-[4-(4-Benzyl-piperazin-1-ylmethyl)-phenoxy]-3,5-dimethyl-pyrazol-1-yl}-4-pyridin-2-yl-pyrimidine]
IC50 (L929 cells): 50 nM

SMILES: N#Cc1cccc(C(C(=O)NC(c2ccccc2)c2ccccc2)N(CCc2c[nH]cn2)C(=O)c2ccccc2C(=O)c2ccccc2)c1 (stereo not drawn) [Compound 2]
IC50 (L929 cells): 5650 nM

SMILES: O=C(c1ccccc1)c1ccccc1C(=O)N(CCc1c[nH]cn1)C(Cc1ccccc1C(F)(F)F)C(=O)NCC(c1ccccc1)c1ccccc1 (stereo not drawn) [Compound 27]
IC50 (L929 cells): 2720 nM

SMILES: COc1ccc(CCNC(=O)C(c2cccc(C#N)c2)N(CCc2c[nH]cn2)C(=O)c2cnc3ccccc3n2)cc1 (stereo not drawn) [Compound 74]
inhibition at 1 µM (L929 cells; compound at 1 μM, read-out: TNFα % Inh. @ 1 μM): 55%

Source: patent US9579325B2, “Modulators of TNF-α signaling” (Genzyme Corporation, priority 2000, dated 2017)
